Legend:
mouse DGAT1 = target: T1, mouse DGAT1 (Mus musculus, UniProt Q9Z2A7); test: DGAT1 inhibitory effect test (microsome fraction, [14C]-oleoyl-CoA, triglyceride radioactivity by TLC); assay type: biochemical; conditions: 0.5 h; concentration of the test compound 0.1 μg/ml; mouse DGAT1 microsomes, 23° C., 30 minutes; read-out: Inhibitory ratio
T1 construct: made in house; host or cells: insect cells (High Five, Sf9, Sf21, etc.), baculovirus expression system (Invitrogen)
T1 sequence (Q9Z2A7 1-498): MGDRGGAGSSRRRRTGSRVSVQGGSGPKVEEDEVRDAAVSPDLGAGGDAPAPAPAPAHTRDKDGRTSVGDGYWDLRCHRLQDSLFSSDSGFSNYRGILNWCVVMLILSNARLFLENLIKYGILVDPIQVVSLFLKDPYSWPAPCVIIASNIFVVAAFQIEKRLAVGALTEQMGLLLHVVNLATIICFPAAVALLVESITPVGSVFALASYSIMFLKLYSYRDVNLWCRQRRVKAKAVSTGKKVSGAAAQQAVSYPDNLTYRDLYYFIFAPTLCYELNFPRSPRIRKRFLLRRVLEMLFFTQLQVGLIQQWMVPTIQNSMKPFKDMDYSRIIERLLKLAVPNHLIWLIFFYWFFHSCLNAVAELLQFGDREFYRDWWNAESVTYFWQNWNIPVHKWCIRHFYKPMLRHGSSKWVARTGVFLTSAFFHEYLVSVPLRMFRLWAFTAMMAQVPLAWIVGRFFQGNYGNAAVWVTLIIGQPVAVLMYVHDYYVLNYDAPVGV
In short: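 Inhibition was scored from radiolabelled triglyceride separated by TLC, relative to vehicle and net of a 0-min background. The reaction ran for 30 min at room temperature (23 °C) in Tris-HCl pH 8.0 with MgCl2, BSA and Triton X-100. Substrates were 30 μM [14C]-oleoyl-CoA and 0.5 mM dioleoylglycerol, with mouse DGAT1 microsomes from baculovirus-infected insect cells as enzyme.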

| Structure (SMILES) | inhibition at 0.1 µg/mL (mouse DGAT1) [%] | melting point |
| --- | --- | --- |
| COC(=O)Cc1ccc(OC(=O)N2CCN(c3ccc(NC(=O)Nc4cc(C)ccc4OC)cc3)CC2)c(Cl)c1 [Example 393, 4-{4-[3-(2-methoxy-5-methyl-phenyl)-ureido]-phenyl}-piperazine-1-carboxylic acid 2-chloro-4-methoxycarbonylmethyl-phenyl ester] | ≥ 50 | 209 to 210 °C |
| COc1ccc(C)cc1NC(=O)Nc1ccc(N2CCN(C(=O)Nc3ccc(C(=O)O)cc3Cl)CC2)cc1 [Example 181, 3-chloro-4-[(4-{4-[3-(2-methoxy-5-methyl-phenyl)-ureido]-phenyl}-piperazine-1-carbonyl)-amino]-benzoic acid] | ≥ 50 | 209 to 221 °C |
| COc1ccc(C)cc1NC(=O)Nc1ccc(N2CCN(C(=O)Nc3ncccc3C)CC2)nc1 [Example 301, 4-{5-[3-(2-methoxy-5-methyl-phenyl)-ureido]-pyridin-2-yl}-piperazine-1-carboxylic acid (3-methyl-pyridin-2-yl)-amide] | ≥ 50 | 216 to 218 °C |
| CCOc1ccccc1NC(=O)Nc1ccc(N2CCN(C(=O)Nc3ccc(OC)cc3C)CC2)nc1 [Example 145, 4-{5-[3-(2-ethoxy-phenyl)-ureido]-pyridin-2-yl}-piperazine-1-carboxylic acid (4-methoxy-2-methyl-phenyl)-amide] | ≥ 50 | 166 to 168 °C |
| COc1ccc(C)cc1NC(=O)Nc1ccc(N2CCN(C(=O)Nc3ccc(F)cc3C)CC2)cc1 [Example 172, 4-{4-[3-(2-methoxy-5-methyl-phenyl)-ureido]-phenyl}-piperazine-1-carboxylic acid (4-fluoro-2-methyl-phenyl)-amide] | ≥ 50 | > 270 °C (dec.) |
| O=C(Nc1ccc(N2CCN(C(=O)Nc3ccc(C(=O)O)cc3Cl)CC2)cc1)Nc1ccccc1F [Example 388, 3-chloro-4-[(4-{4-[3-(2-fluoro-phenyl)-ureido]-phenyl}-piperazine-1-carbonyl)-amino]-benzoic acid] | ≥ 50 | 250 to 253 °C |
| CCOc1ccccc1NC(=O)Nc1ccc(N2CCN(C(=O)Nc3c(C)cccc3C)CC2)nc1 [Example 142, 4-{5-[3-(2-ethoxy-phenyl)-ureido]-pyridin-2-yl}-piperazine-1-carboxylic acid (2,6-dimethyl-phenyl)-amide] | ≥ 50 | 188 to 190 °C |
| COc1ccc(C)cc1NC(=O)Nc1ccc(N2CCN(C(=O)Nc3ccc(C(C)C)cc3C(F)(F)F)CC2)cc1 [Example 178, 4-{4-[3-(2-methoxy-5-methyl-phenyl)-ureido]-phenyl}-piperazine-1-carboxylic acid (4-isopropyl-2-trifluoromethyl-phenyl)-amide] | ≥ 50 | 134 to 135 °C |
| COc1ccc(C)cc1NC(=O)Nc1ccc(N2CCN(C(=O)Nc3ccc(OCCO)cc3C(F)(F)F)CC2)nc1 [Example 220, 4-{5-[3-(2-methoxy-5-methyl-phenyl)-ureido]-pyridin-2-yl}-piperazine-1-carboxylic acid [4-(2-hydroxy-ethoxy)-2-trifluoromethyl-phenyl]-amide] | ≥ 50 | 198 to 200 °C |
| CCOc1ccc(Cl)cc1NC(=O)Nc1ccc(N2CCN(C(=O)Nc3c(C)cccc3Cl)CC2)cc1 [Example 103, 4-{4-[3-(5-chloro-2-ethoxy-phenyl)-ureido]-phenyl}-piperazine-1-carboxylic acid (2-chloro-6-methyl-phenyl)-amide] | ≥ 50 | 159 to 161 °C |
| COc1ccc(C)cc1NC(=O)Nc1ccc(N2CCN(C(=O)Nc3ccc(NC(C)=O)cc3C(F)(F)F)CC2)cc1 [Example 173, 4-{4-[3-(2-methoxy-5-methyl-phenyl)-ureido]-phenyl}-piperazine-1-carboxylic acid (4-acetylamino-2-trifluoromethyl-phenyl)-amide] | ≥ 50 | 152 to 154 °C |
| CCCCCCNC(=O)Nc1ccc(N2CCN(C(=O)Nc3c(C)cccc3Cl)CC2)cc1 [Example 206, 4-[4-(3-hexyl-ureido)-phenyl]-piperazine-1-carboxylic acid (2-chloro-6-methyl-phenyl)-amide] | ≥ 50 | 206 to 210 °C |
| COc1ccc(C)cc1NC(=O)Nc1ccc(C2=CCN(C(=O)Nc3cc(OCCO)ccc3Cl)CC2)cc1 [Example 273, 4-{4-[3-(2-methoxy-5-methyl-phenyl)-ureido]-phenyl}-3,6-dihydro-2H-pyridine-1-carboxylic acid [2-chloro-5-(2-hydroxy-ethoxy)-phenyl]-amide] | ≥ 50 | 139 to 142 °C |
| COc1ccc(C)cc1NC(=O)Nc1ccc(N2CCN(C(=O)Nc3ncccc3C)CC2)cc1 [Example 294, 4-{4-[3-(2-methoxy-5-methyl-phenyl)-ureido]-phenyl}-piperazine-1-carboxylic acid (3-methyl-pyridin-2-yl)-amide] | ≥ 50 | 209 to 211 °C |
| COc1ccc(C)cc1NC(=O)Nc1ccc(N2CCN(C(=O)Oc3ccc(CC(=O)O)cc3Cl)CC2)cc1 [Example 394, 4-{4-[3-(2-methoxy-5-methyl-phenyl)-ureido]-phenyl}-piperazine-1-carboxylic acid 4-carboxymethyl-2-chloro-phenyl ester] | ≥ 50 | 199 to 200 °C |
| Cc1ccc(Cl)cc1NC(=O)Nc1ccc(N2CCN(C(=O)OC(C)(C)C)CC2)cc1 [Example 35, 4-{4-[3-(5-chloro-2-methyl-phenyl)-ureido]-phenyl}-piperazine-1-carboxylic acid tert-butyl ester] | ≥ 50 | 200 °C |
| COc1ccc(F)cc1NC(=O)Nc1ccc(N2CCN(C(=O)Nc3ccc(C)cc3Cl)CC2)nc1 [Example 154, 4-{5-[3-(5-fluoro-2-methoxy-phenyl)-ureido]-pyridin-2-yl}-piperazine-1-carboxylic acid (2-chloro-4-methyl-phenyl)-amide] | ≥ 50 | 217 to 218 °C |
| COc1ccccc1NC(=O)Nc1ccc(N2CCN(C(=O)Nc3c(C)cccc3Cl)CC2)cc1 [Example 124, 4-{4-[3-(2-methoxy-phenyl)-ureido]-phenyl}-piperazine-1-carboxylic acid (2-chloro-6-methyl-phenyl)-amide] | ≥ 50 | 245 to 247 °C |
| Cc1cccc(Cl)c1NC(=O)N1CCN(c2ccc(NC(=O)Nc3ccccc3F)cc2)CC1 [Example 125, 4-{4-[3-(2-fluoro-phenyl)-ureido]-phenyl}-piperazine-1-carboxylic acid (2-chloro-6-methyl-phenyl)-amide] | ≥ 50 | 232 to 234 °C |
| COc1ccc(C)cc1NC(=O)Nc1ccc(C2CCN(C(=O)Nc3ccc(OCC(O)CO)cc3Cl)CC2)cc1 (centres unmarked) [Example 283, 4-{4-[3-(2-methoxy-5-methyl-phenyl)-ureido]-phenyl}-piperidine-1-carboxylic acid [2-chloro-4-(2,3-dihydroxy-propoxy)-phenyl]-amide] | ≥ 50 | 179 to 181 °C |
| COc1ccc(C)cc1NC(=O)Nc1ccc(N2CCN(C(=O)Nc3c(C)cccc3Cl)C(C)C2)cc1 (centres unmarked) [Example 198, 4-{4-[3-(2-methoxy-5-methyl-phenyl)-ureido]-phenyl}-2-methyl-piperazine-1-carboxylic acid (2-chloro-6-methyl-phenyl)-amide] | ≥ 50 | 161 to 163 °C |
| COc1ccc(C)cc1NC(=O)Nc1ccc(N2CCN(C(=O)Nc3c(C)cccc3OC)CC2)cc1 [Example 170, 4-{4-[3-(2-methoxy-5-methyl-phenyl)-ureido]-phenyl}-piperazine-1-carboxylic acid (2-methoxy-6-methyl-phenyl)-amide] | ≥ 50 | 200 to 203 °C |
| CCOc1ccc(F)cc1NC(=O)Nc1ccc(N2CCN(C(=O)Nc3ncccc3C)CC2)nc1 [Example 300, 4-{5-[3-(2-ethoxy-5-fluoro-phenyl)-ureido]-pyridin-2-yl}-piperazine-1-carboxylic acid (3-methyl-pyridin-2-yl)-amide] | ≥ 50 | 180 to 185 °C |
| CSc1ccccc1NC(=O)Nc1ccc(N2CCN(C(=O)Nc3ccc(OCCO)cc3C(F)(F)F)CC2)cc1 [Example 241, 4-{4-[3-(2-methylsulfanyl-phenyl)-ureido]-phenyl}-piperazine-1-carboxylic acid [4-(2-hydroxy-ethoxy)-2-trifluoromethyl-phenyl]-amide] | ≥ 50 | 115 to 116 °C |
| CCOc1ccccc1NC(=O)Nc1ccc(N2CCN(C(=O)Nc3ccccc3C)CC2)cc1 [Example 81, 4-{4-[3-(2-ethoxy-phenyl)-ureido]-phenyl}-piperazine-1-carboxylic acid o-tolylamide] | ≥ 50 | 206 to 208 °C |

Source: patent publication US20070249620A1, “Urea Derivative” (priority 2004, published 2007)
